These results are taken from US6153429A (priority 1997, dated 2000).

A short description of series [1]: in vitro. The following applies: mouse, c3h/10t1/2 t1 cells.
For series [2] the following is noted: background statement, chemicals identified by IARC; cited from earlier work.

In the case of `C1CCOC1` [tetrahydrofuran], in series [1], the fold induction (usually the ratio of treated to control signal) at 504 h turned out to be 1.
With `C=C(C)C12OC3(c4ccccc4)OC1C1C4OC4(CO)C(O)C4(O)C(=O)C(C)=CC4C1(O3)C(C)C2OC(=O)/C=C/C=C/c1ccccc1` (stereo not drawn) [Mezerein, mezerein], in series [1], the fold induction at 504 h was determined as 2.
`c1ccc2c(c1)cc1ccc3cccc4ccc2c1c34` [Benzo[a]pyrene, benzo[a]pyrene] showed a fold induction at 504 h in series [1] of 1.15.
In turn, `Cn1c(=O)c2c(ncn2C)n(C)c1=O` [caffeine] registered a fold induction at 504 h in series [1] of 1.
Regarding `CC/C(=C(/CC)c1ccc(O)cc1)c1ccc(O)cc1` [Diethylstilbestroel, diethylstilbestroel], the mutagenicity entry in series [2] is “only weakly mutagenic”. The fold induction at 504 h in series [1] amounted to 1.12.
